How the values were obtained:
Assay in all cases: SelectScreen Z'LYTE kinase profiling
Format in all cases: biochemical
Details in all cases: ATP at apparent KM
MELK = MELK (Homo sapiens, UniProt Q14680)
Method: (§1) protein kinases at a compound concentration of 1 µM. Measurements were performed in duplicates
(§2) and at the particular apparent ATP KM of each individual kinase employing the activity based Z’LYTE®
(§3) kinase assay of the SelectScreen® Kinase Profiling Services (ThermoFisher Scientific).
(§4) kinases at a compound concentration of 1 µM. Measurements were performed in duplicates and at
(§5) the particular apparent ATP KM of each individual kinase employing the activity based Z’LYTE® kinase
(§6) assay of the SelectScreen® Kinase Profiling Services (ThermoFisher Scientific).

MAPKAPK2 = MAPKAPK2 (Homo sapiens, UniProt P49137)
Method: as §1, §2, §3, §4, §5, §6

PAK1 = PAK1 (Homo sapiens, UniProt Q13153)
Method: as §1, §2, §3, §4, §5, §6

PAK4 = PAK4 (Homo sapiens, UniProt O96013)
Method: as §1, §2, §3, §4, §5, §6

ROCK2 = ROCK2 (Homo sapiens, UniProt O75116)
Method: as §1, §2, §3, §4, §5, §6

DNA-PK = DNA-PK (Homo sapiens, UniProt P78527)
Method: as §1, §2, §3, §4, §5, §6

TBK1 = biological target: T1, TBK1 (Homo sapiens, UniProt Q9UHD2)
T1 sequence (Q9UHD2 1-729): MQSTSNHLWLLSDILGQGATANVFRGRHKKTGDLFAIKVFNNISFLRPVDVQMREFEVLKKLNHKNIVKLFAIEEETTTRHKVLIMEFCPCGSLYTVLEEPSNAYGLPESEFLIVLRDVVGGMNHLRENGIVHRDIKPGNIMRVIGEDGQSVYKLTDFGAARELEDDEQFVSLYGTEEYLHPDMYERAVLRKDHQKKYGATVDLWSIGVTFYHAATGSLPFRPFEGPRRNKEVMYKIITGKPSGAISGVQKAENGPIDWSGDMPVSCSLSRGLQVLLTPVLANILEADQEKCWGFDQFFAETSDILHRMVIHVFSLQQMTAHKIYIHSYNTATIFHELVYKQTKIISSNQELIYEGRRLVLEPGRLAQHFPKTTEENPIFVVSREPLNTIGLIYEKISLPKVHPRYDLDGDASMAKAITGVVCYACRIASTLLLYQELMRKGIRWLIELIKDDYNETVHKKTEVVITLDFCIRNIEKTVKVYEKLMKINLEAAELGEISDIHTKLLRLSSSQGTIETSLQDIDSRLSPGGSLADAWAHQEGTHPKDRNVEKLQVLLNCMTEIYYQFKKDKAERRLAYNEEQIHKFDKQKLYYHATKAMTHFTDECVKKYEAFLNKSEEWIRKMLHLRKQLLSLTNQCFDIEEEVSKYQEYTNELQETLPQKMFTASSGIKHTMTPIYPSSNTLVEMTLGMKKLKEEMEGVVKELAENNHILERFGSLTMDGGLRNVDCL

MAPK1 (ERK2) = MAPK1 (ERK2) (Homo sapiens, UniProt P28482)
Method: as §1, §2, §3, §4, §5, §6

MAPK3 (ERK1) = MAPK3 (ERK1) (Homo sapiens, UniProt P27361)
Method: as §1, §2, §3, §4, §5, §6

DCAMKL2 (DCK2) = biological target: T2, DCAMKL2 (DCK2) (Homo sapiens, UniProt Q8N568)
T2 sequence (Q8N568 1-766): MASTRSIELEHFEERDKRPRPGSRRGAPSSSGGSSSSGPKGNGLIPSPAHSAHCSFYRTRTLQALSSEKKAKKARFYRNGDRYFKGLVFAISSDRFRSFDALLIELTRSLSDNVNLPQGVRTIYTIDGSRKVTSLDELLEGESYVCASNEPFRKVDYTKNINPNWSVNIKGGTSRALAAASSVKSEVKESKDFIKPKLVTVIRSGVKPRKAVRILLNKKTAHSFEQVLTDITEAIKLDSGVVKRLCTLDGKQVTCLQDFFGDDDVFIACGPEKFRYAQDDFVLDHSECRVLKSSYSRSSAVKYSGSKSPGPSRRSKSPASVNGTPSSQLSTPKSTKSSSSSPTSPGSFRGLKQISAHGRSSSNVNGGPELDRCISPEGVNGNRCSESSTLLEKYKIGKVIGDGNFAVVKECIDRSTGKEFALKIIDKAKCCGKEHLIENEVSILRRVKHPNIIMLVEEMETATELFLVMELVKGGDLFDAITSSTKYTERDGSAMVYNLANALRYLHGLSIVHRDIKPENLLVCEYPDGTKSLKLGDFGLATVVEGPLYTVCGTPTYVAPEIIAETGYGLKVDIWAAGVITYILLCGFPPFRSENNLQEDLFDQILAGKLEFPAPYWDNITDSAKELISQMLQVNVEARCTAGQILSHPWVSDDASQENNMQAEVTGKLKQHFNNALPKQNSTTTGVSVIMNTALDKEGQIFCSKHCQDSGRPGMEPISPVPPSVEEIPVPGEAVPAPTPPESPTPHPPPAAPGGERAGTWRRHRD
Method: as §1, §2, §3, §4, §5, §6

MARK3 = MARK3 (Homo sapiens, UniProt P27448)
Method: as §1, §2, §3, §4, §5, §6

PRKCG (PKC gamma) = PRKCG (PKC gamma) (Homo sapiens, UniProt P05129)
Method: as §1, §2, §3, §4, §5, §6

Sequence of MARK3 (P27448 whole entry): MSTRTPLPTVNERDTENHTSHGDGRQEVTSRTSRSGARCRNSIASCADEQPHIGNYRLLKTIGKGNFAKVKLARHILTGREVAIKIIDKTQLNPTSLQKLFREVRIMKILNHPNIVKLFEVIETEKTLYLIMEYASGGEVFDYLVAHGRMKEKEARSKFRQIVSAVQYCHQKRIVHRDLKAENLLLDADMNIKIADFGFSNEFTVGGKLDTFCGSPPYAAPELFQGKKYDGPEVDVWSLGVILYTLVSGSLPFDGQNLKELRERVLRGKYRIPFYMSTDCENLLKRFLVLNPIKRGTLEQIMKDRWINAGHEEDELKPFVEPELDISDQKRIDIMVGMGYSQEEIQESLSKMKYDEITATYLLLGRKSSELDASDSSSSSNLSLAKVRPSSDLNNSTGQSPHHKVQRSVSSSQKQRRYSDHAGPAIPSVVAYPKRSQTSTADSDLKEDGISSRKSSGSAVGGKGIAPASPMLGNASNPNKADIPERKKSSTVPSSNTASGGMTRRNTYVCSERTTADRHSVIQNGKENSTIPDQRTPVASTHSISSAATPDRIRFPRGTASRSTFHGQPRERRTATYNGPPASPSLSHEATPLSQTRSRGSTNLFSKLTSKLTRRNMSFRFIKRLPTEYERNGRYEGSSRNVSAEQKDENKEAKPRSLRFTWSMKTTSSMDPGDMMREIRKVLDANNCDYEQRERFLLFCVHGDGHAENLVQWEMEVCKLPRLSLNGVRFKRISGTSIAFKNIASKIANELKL
Sequence of PAK1 (Q13153 whole entry): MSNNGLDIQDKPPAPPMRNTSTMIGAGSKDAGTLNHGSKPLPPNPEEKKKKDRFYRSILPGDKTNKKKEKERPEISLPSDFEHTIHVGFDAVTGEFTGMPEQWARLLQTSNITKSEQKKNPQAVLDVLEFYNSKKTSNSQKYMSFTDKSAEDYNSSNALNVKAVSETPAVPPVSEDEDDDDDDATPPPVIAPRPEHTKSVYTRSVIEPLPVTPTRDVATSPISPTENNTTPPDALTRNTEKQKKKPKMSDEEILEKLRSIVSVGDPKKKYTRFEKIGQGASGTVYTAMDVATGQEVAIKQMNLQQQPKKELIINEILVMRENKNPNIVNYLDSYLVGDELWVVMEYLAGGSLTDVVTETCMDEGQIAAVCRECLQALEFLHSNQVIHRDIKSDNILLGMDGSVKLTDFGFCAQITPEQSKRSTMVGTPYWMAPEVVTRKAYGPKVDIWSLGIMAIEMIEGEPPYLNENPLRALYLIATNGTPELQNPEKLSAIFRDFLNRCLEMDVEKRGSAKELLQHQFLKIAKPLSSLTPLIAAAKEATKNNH
Sequence of ROCK2 (O75116 whole entry): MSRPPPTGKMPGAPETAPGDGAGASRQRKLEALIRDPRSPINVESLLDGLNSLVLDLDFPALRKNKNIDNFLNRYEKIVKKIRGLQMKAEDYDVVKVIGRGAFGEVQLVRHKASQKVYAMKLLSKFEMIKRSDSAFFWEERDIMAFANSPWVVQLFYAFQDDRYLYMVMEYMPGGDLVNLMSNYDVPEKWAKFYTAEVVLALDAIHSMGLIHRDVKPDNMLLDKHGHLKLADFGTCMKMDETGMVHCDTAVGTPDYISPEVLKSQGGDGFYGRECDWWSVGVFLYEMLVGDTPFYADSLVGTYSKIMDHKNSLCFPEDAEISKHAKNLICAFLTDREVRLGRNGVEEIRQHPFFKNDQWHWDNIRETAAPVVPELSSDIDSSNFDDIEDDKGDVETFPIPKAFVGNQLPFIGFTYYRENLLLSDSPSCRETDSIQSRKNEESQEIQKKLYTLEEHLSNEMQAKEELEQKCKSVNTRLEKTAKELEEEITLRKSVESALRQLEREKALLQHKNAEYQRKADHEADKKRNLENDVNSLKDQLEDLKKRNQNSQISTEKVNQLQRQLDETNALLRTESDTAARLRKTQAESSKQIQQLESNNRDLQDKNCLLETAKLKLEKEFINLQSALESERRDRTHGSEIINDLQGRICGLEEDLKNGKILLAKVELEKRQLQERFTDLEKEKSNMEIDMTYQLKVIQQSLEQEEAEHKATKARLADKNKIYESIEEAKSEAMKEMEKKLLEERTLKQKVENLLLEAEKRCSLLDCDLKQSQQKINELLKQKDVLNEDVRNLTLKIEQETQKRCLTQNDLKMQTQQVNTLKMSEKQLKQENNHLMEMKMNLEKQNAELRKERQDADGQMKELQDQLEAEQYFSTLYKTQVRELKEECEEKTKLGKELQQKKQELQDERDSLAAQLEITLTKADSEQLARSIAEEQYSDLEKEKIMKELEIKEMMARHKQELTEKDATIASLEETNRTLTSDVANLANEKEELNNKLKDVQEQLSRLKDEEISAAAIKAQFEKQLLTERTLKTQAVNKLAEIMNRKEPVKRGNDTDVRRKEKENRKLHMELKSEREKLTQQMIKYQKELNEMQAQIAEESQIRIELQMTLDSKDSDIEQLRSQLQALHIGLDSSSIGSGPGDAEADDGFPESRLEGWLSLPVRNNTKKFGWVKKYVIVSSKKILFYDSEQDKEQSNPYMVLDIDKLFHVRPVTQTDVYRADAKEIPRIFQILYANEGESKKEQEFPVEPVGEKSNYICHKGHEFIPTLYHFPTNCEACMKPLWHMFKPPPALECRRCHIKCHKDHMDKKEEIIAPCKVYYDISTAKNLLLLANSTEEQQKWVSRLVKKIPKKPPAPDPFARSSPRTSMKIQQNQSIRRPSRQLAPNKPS
Sequence of MAPK3 (ERK1) (P27361 whole entry): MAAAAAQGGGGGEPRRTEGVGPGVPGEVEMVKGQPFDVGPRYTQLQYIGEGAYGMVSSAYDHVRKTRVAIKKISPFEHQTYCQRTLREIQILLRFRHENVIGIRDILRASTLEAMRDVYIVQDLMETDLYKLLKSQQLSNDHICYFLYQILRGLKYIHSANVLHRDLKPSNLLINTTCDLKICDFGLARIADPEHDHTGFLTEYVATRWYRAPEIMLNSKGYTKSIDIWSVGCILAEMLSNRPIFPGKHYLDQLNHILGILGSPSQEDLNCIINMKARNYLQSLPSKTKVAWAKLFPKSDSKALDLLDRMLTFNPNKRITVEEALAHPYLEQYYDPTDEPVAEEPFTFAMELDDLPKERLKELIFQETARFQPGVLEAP
Sequence of MAPK1 (ERK2) (P28482 whole entry): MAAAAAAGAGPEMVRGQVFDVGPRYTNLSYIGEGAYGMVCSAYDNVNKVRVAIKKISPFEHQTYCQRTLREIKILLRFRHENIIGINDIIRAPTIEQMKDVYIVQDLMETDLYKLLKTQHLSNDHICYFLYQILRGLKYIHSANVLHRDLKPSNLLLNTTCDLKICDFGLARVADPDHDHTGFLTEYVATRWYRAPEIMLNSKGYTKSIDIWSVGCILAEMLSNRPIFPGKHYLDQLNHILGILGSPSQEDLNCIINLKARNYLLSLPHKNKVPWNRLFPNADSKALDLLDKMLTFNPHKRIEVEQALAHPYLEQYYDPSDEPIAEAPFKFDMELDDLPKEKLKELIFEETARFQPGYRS
Sequence of MELK (Q14680 whole entry): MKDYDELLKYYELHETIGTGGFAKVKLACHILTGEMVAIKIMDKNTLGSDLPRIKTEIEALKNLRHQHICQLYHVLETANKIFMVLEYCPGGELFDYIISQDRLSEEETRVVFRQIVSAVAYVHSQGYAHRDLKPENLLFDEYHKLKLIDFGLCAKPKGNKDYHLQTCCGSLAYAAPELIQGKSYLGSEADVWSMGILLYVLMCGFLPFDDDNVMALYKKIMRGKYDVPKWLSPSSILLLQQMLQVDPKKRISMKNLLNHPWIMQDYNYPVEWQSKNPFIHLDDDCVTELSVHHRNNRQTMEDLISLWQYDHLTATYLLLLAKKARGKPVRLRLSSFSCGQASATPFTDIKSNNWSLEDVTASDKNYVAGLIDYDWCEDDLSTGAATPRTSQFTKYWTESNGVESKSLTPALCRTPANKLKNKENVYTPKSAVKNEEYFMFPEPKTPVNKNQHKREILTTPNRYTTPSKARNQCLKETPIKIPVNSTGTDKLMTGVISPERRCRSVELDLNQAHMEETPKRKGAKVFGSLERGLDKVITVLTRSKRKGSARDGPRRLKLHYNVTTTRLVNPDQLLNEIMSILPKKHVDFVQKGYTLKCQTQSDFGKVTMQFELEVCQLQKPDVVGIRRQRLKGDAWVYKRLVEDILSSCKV

Row | SMILES | inhibition at 1 µM (MELK) [%] | inhibition at 1 µM (MAPKAPK2) [%] | inhibition at 1 µM (PAK1) [%] | inhibition at 1 µM (PAK4) [%] | inhibition at 1 µM (ROCK2) [%] | inhibition at 1 µM (DNA-PK) [%] | inhibition at 1 µM (TBK1) [%] | inhibition at 1 µM (MAPK1 (ERK2)) [%] | inhibition at 1 µM (MAPK3 (ERK1)) [%] | inhibition at 1 µM (DCAMKL2 (DCK2)) [%] | inhibition at 1 µM (MARK3) [%] | inhibition at 1 µM (PRKCG (PKC gamma)) [%]
1 | C=CC(=O)Nc1cccc(C(=O)NC2CCN(Cc3ccc(-c4nc5cc[nH]c(=O)c5cc4-c4ccccc4)cc3)CC2)c1 [30b] | 52 | 31 | 4 | 8 | 21 | 8 | 5 | 13 | 3 | 3 | 3 | 0
2 | C=CC(=O)Nc1cc(NC(=O)NC2CCN(Cc3ccc(-c4nc5cc[nH]c(=O)c5cc4-c4ccccc4)cc3)CC2)ccc1Cl [compound 27] | 83 | 33 | -2 | 16 | 31 | 5 | 3 | 11 | 3 | -1 | 3 | -6
3 | C=CC(=O)Nc1ccc2c(c1)n(C1CCN(Cc3ccc(-c4nc5cc[nH]c(=O)c5cc4-c4ccccc4)cc3)CC1)c(=O)n2C [24b] | 48 | 29 | 12 | 12 | 9 | 7 | 4 | 2 | 0 | -1 | -1 | -3

Source: paper PMC6430017, “Structural and chemical insights into the covalent-allosteric inhibition of the protein kinase Akt” (Chemical Science, 2019)
